Measured values as given in ChEMBL document CHEMBL1156164, “Synthesis of 26-hydroxy-22-oxocholestanic frameworks from diosgenin and hecogenin and their in vitro antiproliferative and apoptotic activity on human cervical cancer CaSki cells” (Bioorg Med Chem, 2010).
pIC50: −log10 of the molar value. Active and inactive are the calls of the source. No cut-off for these calls is given here.

What was measured:
Ca-Ski [1] = assay: Antiproliferative activity against human CaSki cells after 24 hrs using crystal violet staining by ELISA; type: functional, cell-based
Ca-Ski [2] = assay: Cell cycle arrest in human CaSki cells assessed as DNA accumulation at S phase at IC50 after 24 hrs using propidium iodide staining by flow cytometry; type: functional, cell-based
Ca-Ski [3] = assay: Induction of apoptosis in human CaSki cells assessed as chromatin condensation at IC50 after 24 hrs by DAPI staining; type: functional, cell-based
Ca-Ski [4] = assay: Cell cycle arrest in human CaSki cells assessed as DNA accumulation at G2/M phase at IC50 after 24 hrs using propidium iodide staining by flow cytometry; type: functional, cell-based
PBMC [5] = assay: Effect on enriched human PBMC proliferation assessed as proliferating cells at IC50 after 72 hrs using CSFE labeling by flow cytometry; type: functional
Ca-Ski [6] = assay: Induction of necrosis of human CaSki cells assessed as LDH accumulation in culture supernatant at IC50 after 24 hrs by INT assay; type: functional
Ca-Ski [7] = assay: Induction of apoptosis in human CaSki cells assessed as fragmentation of genomic DNA at IC50 after 24 hrs by TUNEL assay; type: functional, cell-based
Ca-Ski [8] = assay: Induction of apoptosis in human CaSki cells assessed as increase in active caspase-3 expression at IC50 after 24 hrs by immunocytochemistry; type: functional, cell-based
Ca-Ski [9] = assay: Effect on human CaSki cell morphology assessed as formation of small spherical cells at IC50 after 24 hrs by microscopy; type: functional, cell-based
[10] = Cytotoxicity against human fibroblast cells at IC50 after 24 hrs by crystal violet staining; type: cell-based
Ca-Ski [11] = assay: Cell cycle arrest in human CaSki cells assessed as DNA accumulation at sub G1 phase at IC50 after 24 hrs using propidium iodide staining by flow cytometry; type: functional, cell-based
[12] = Induction of necrosis of PHA-activated human lymphocytes assessed as LDH accumulation in culture supernatant at IC50 after 72 hrs by INT assay; type: cell-based; conditions: lymphocyte
Ca-Ski [13] = assay: Cell cycle arrest in human CaSki cells assessed as DNA accumulation at G1 phase at IC50 after 24 hrs using propidium iodide staining by flow cytometry; type: functional, cell-based
PBMC [14] = assay: Induction of enriched human PBMC proliferation assessed as non-proliferating cells at IC50 after 72 hrs using CSFE labeling by flow cytometry; type: functional
Ca-Ski [15] = assay: Effect on human CaSki cell morphology assessed as formation of non-reflective small inclusion bodies at IC50 after 24 hrs by microscopy; type: functional, cell-based
Ca-Ski [16] = assay: Effect on human CaSki cell morphology assessed as formation of large cells at IC50 after 24 hrs by microscopy; type: functional, cell-based
Ca-Ski [17] = assay: Induction of apoptosis in human CaSki cells assessed as appearance of apoptotic bodies at IC50 after 24 hrs by DAPI staining; type: functional, cell-based

Structure (SMILES)	Activity (Ca-Ski [1])	pIC50 (Ca-Ski [1])	Activity (Ca-Ski [2])	Activity (Ca-Ski [3])	Activity (Ca-Ski [4])	Activity (PBMC [5]) [%]	Activity (Ca-Ski [6])	Activity (Ca-Ski [7])	Activity (Ca-Ski [8])	Activity (Ca-Ski [9])	Activity [10]	Activity (Ca-Ski [11])	Activity [12]	Activity (Ca-Ski [13])	Activity (PBMC [14]) [%]	Activity (Ca-Ski [15])	Activity (Ca-Ski [16])	Activity (Ca-Ski [17])
CC(=O)O[C@H]1CC[C@@]2(C)C(=CC[C@H]3[C@@H]4C[C@H](OC(C)=O)[C@H]([C@H](C)C(=O)CC[C@@H](C)CO)[C@@]4(C)CC[C@@H]32)C1	Dose-dependent effect	4.33	Active	Active	Active	76.15	inactive	inactive	Active	Active	Not Active	Active	Not Active	Active	23.85	–	–	–
CC(=O)O[C@H]1CC[C@@]2(C)[C@@H](CC[C@@H]3[C@@H]2CC(=O)[C@]2(C)[C@@H]([C@H](C)C(=O)CC[C@@H](C)CO)[C@@H](OC(C)=O)C[C@@H]32)C1	Dose-dependent effect	3.73	Active	–	inactive	63.68	28%	Active	Active	–	18%	Active	Not Active	inactive	36.34	Active	Active	Active
